The results in this text go back to US20180318379A1, “INHIBITION OF TRIGGERING RECEPTOR EXPRESSED ON MYELOID CELLS 1 (TREM1) TO TREAT CENTRAL NERVOUS SYSTEM DISORDERS” (The Board of Trustees of the Leland Stanford Junior …, priority 2017, published 2018).

Test [1] relates to TREM1. Briefly: FACS quantification of brain myeloid cells after MCAo-RP stroke. The test is classed as in vivo, mice. On the procedure:
FIG. 12. A representation of the dynamics of immune present at the indicated days after stroke (or the temporal dynamics of immune cell subsets). Stroke was modeled in […] 3 mo male mice using 45 minutes of middle cerebral artery occlusion (MCAo) followed by reperfusion (RP).
These plots show increased CD11b^+/CD45^lo microglia and reduced CD11b^+/CD45^hi macrophages with LP17 treatment.

Test [2] has as its system TREM1. Description: Neuroscore after MCAo-RP stroke in mice. The test is classed as in vivo. Conditions: 2 days after MCAo-RP; LP17 vs scrambled peptide; n=15-18 per group; ANOVA effect of LP17 p=0.008.
Where [3] appears, read: 2 days after MCAo-RP, LP17 vs scrambled peptide.

Consider LQVTDSGLYRCVIYHPP [LP17], for which, in the test on TREM1 [1] (setting [3]), the “CD11b+/CD45hi macrophages in stroked hemisphere (FACS)” value is reported as “reduced” and the “CD11b+/CD45lo microglia in stroked hemisphere (FACS)” value is “increased”. Also, the “infiltration of macrophages after stroke” value with TREM1 [1] (after MCAo-RP stroke) is given as “reduces infiltration of macrophages”. Besides, the neuroscores result in the test with TREM1 [2] is listed as “improved”.
